Experiment [1] has as its system human prostate cancer (DU 145). The experiment in a line: Growth inhibition, SRB assay, DU 145. Format: cell-based. Particulars: 72 hours, three independent experiments, read-out: Growth inhibition of cancer cell: GI50, DU 145. Here is the method:
(§1) T-type calcium channel blocking effects of the compounds of the present invention were tested according to an electrophysiological whole-cell patch-clamp method, which uses mammalian HEK293 cell line selectively expressing α1G among T-type calcium channel encoding genes, wherein the α1G is mainly expressed at nerve cells (derived from […]), as described in Korean Patent No. 0610731 and Monteil, A., et al., J. Biol. Chem. 2000, 275, 6090-6100. Also, cytotoxicities of the compounds according to the present invention were tested according to a 3-(4,5-dimethylthiazol-2-yl)-2,5-diphenyltetrazolium bromide (MTT) assay. Further, growth inhibition effects against cancer cell lines of the compounds according to the present invention were tested according to a sulforhodamine B (SRB) assay, as disclosed in Skehan, P. et al., J. Natl Cancer Inst. 1990, 82, 1107-1112.
(§2) Experiment 3: Analysis for Growth Inhibition Against Cancer Cell Lines Using SRB Assay
(§3) The compounds according to the present invention were evaluated for their growth inhibition against five cancer cell lines, including human lung carcinoma (A-549), human prostate cancer (DU 145), human colon cancer (HT-29), human malignant melanoma (SK-MEL-2) and human ovarian cancer (SK-OV-3) using sulforhodamine B (SRB) assay. All cell lines were grown in RPMI 1640 (Gibco BRL) supplemented with 10% (v/v) heat-inactivated fetal bovine serum (FBS) and maintained at 37° C. in a humidified atmosphere with 5% CO2. The cells were seeded into 96-well plate. Various concentrations of compounds were added to each well in triplicate and then incubated at 37° C. with 5% CO2 for 72 hours such that cells are in the exponential phase of growth at the time of drug addition. After incubation, 100 μL of formalin solution was gently added to the wells. Microplates were left for 30 min at room temperature and washed five times with tap water. One hundred microliters of 0.4% SRB solution was added to each well and left at room temperature for 30 min. SRB was removed and the plates were washed five times with 1% acetic acid before air-drying. Bound SRB was solubilized with 100 μL of 10 mM unbuffered Tris-base solution (Sigma) and plates were left on a plate shaker for at least 10 min. The optical density was measured using a microplate reader (Versamax, Molecular Devices) with a 520 nm wavelength and the growth inhibition concentration was expressed as GI50.

In experiment [2] the test system is human colon cancer (HT-29). In words: Growth inhibition, SRB assay, HT-29. Format: cell-based. Particulars: for GI50: Homo sapiens, HT-29, SRB assay, 72 hours, three independent experiments, read-out: Growth inhibition of cancer cell: GI50, HT-29. Here is the method: as §1, §2, §3
On the technique in general: In SRB staining, fixed cells bind dye roughly in proportion to their protein.

Experiment [3] deals with human ovarian cancer (SK-OV-3). The experiment in a line: Growth inhibition, SRB assay, SK-OV-3. Format: cell-based. Particulars: 72 hours, three independent experiments, read-out: Growth inhibition of cancer cell: GI50, SK-OV-3. The method, then:
as §1, §2, §3

Experiment [4] deals with human malignant melanoma (SK-MEL-2). The experiment in a line: Growth inhibition, SRB assay, SK-MEL-2. Format: cell-based. Particulars: 72 hours, three independent experiments, read-out: Growth inhibition of cancer cell: GI50, SK-MEL-2. The method, then:
as §1, §2, §3

The target of experiment [5] is T1, T-type calcium channel (α1G) (Homo sapiens, UniProt O43497).
T1 construct: expressed in transfected cells
T1 sequence (O43497 whole entry): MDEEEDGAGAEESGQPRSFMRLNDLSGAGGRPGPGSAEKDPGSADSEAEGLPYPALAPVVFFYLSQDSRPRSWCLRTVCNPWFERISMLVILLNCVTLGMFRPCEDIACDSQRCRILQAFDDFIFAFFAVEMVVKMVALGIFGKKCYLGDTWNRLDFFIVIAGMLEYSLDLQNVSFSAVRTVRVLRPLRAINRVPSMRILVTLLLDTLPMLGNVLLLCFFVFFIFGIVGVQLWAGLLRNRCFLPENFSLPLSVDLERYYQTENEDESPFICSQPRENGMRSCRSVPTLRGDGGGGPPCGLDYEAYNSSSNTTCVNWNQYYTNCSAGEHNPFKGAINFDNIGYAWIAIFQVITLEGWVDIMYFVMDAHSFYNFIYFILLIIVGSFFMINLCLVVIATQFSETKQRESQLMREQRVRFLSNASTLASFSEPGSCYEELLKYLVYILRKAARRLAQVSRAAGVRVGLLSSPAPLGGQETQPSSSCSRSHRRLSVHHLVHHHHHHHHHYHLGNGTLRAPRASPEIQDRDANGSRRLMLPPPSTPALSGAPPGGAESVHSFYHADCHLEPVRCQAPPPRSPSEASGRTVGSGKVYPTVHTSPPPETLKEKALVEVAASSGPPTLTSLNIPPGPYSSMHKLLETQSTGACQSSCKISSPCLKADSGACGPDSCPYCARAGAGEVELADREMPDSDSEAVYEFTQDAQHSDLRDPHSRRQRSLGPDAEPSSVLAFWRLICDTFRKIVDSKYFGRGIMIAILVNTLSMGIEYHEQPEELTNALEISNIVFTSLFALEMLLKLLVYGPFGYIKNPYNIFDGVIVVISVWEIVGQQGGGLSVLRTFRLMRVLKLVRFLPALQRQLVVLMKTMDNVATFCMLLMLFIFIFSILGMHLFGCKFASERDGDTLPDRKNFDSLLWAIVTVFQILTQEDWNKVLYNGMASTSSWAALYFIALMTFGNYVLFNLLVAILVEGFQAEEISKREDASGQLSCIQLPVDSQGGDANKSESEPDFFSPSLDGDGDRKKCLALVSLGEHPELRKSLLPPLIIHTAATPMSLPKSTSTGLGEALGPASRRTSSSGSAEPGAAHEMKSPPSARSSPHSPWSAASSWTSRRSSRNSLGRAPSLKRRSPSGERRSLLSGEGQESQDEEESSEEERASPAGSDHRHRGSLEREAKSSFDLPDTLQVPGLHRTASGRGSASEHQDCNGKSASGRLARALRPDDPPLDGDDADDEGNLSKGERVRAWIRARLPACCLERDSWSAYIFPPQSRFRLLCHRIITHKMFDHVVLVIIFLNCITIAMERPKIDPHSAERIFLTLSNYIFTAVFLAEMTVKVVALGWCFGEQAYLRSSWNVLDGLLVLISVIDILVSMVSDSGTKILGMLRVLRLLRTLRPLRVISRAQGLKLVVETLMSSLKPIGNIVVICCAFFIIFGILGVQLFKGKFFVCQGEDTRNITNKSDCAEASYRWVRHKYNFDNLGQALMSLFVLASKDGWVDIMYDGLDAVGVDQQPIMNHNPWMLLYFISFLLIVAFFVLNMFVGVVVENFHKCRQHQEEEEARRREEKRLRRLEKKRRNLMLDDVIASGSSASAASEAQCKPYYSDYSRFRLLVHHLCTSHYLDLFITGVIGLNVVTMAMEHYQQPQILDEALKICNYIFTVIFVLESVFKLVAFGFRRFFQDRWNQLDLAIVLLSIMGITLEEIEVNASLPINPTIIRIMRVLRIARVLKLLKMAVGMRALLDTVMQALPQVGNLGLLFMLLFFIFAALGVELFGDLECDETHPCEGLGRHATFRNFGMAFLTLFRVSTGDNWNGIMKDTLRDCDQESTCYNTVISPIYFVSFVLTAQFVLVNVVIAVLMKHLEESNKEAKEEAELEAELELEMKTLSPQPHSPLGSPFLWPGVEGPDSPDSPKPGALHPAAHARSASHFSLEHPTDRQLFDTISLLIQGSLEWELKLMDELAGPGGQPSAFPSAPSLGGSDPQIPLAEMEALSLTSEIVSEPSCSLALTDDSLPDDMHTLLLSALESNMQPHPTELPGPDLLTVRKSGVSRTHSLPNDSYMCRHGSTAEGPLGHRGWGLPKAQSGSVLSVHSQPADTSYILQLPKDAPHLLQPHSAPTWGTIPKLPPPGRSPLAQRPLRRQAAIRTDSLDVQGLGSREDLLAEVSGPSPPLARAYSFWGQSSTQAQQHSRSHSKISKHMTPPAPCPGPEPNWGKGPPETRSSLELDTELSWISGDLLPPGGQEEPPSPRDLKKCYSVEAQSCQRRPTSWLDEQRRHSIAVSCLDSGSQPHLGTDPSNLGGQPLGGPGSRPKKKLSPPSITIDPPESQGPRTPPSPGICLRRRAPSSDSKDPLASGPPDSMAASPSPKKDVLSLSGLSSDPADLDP
In words: T-type calcium channel blocking, electrophysiological whole-cell patch-clamp in HEK293 cells expressing α1G. Format: cell-based. Particulars: dose-response curve, three independent experiments, read-out: Channel blocking effect (IC50) T-type (α1G). Here is the method: as §1
Experiment 1: Methods for Culturing HEK293 cells and measuring T-type Calcium Channel Activity Using an Electrophysiological Method
HEK293 cells were cultured in Dulbecco's modified Eagle's medium (DMEM) supplemented with 10% fetal bovine serum (FBS) and 1% penicillin/streptomycin (v/v) in 36.5° C. humidified incubator (95% air-5% CO2). […] The cells used for T-type calcium channel activity assay were cultured on a cover slip coated with poly-L-lysine (0.5 mg/mL) whenever sub-cultured, and their calcium channel activity was recorded 2 to 7 days after the cultivation. Current of the T-type calcium channel at a single cell level was measured according to an electrophysiological whole-cell patch-clamp method using EPC-9 amplifier (HEKA, Germany). […] Inward current caused by the T-type calcium channel activation which occurred when the cells were converted into a whole-cell recording mode by stabbing a microglass electrode having 3-4 MΩ resistance which was filled with the cell interior solution into a single cell and de-polarized at −30 mV (50 ms duration period) every 10 s with fixing membrane potential to −100 mV was measured according to a T-type calcium channel protocol activated at low current.

The subject of experiment [6] is human lung carcinoma (A-549). The experiment in a line: Growth inhibition, SRB assay, A-549. Format: cell-based. Particulars: A549, 72 hours, three independent experiments, read-out: Growth inhibition of cancer cell: GI50, A-549. The method, then:
as §1, §2, §3

Another experiment deals with five cancer cell lines. In words: Growth inhibition, SRB assay, five cancer cell lines overall. Format: cell-based, human. The method, then: as §2
as §3, with “One hundred microliters of 0.4% SRB solution was added to each well and left at room temperature for 30 min. SRB was removed and the plates were washed five times with 1% acetic acid before air-drying. Bound SRB was solubilized with 100 μL of 10 mM unbuffered Tris-base solution (Sigma) and plates were left on a plate shaker for at least 10 min.” left out
The biological activities of doxorubicin and KYS05042 disclosed in Korean Patent No. 0610731 were evaluated as references, and the results are indicated in Table 2.

One may read the GI50 as the concentration that inhibits growth by half. What is called IC50 is the point on the concentration scale where inhibition reaches its midpoint.

Take `COC(=O)CC1c2ccccc2N=C(N(C)CCCCCN(C)C)N1c1ccc(-c2ccccc2)cc1` (stereo not drawn) [KYS05089, 2-[N-(5-N′,N′-Dimethylaminopentyl)-N-Methylamino]-3-(4-Biphenylyl)-4-Methoxycarbonylmethyl-3,4-Dihydroquinazoline]: the GI50 in experiment [1] is 1780 ± 170 nM; in experiment [2] it was 520 ± 240 nM; in experiment [3], 1950 ± 40 nM; in experiment [4], 1910 ± 110 nM; in experiment [6], 1770 ± 160 nM. The concentration for half-maximal inhibition (IC50) in experiment [5] stood at 230 ± 30 nM.

As for `COc1cccc2c1C(=O)c1c(O)c3c(c(O)c1C2=O)C[C@@](O)(C(=O)CO)C[C@@H]3O[C@H]1C[C@H](N)[C@H](O)[C@H](C)O1` [Doxorubicin, doxorubicin, reference compound], the GI50 in experiment [1] was 60 ± 10 nM; in experiment [2], 210 ± 40 nM; in experiment [3] it was 120 ± 20 nM; in experiment [4], 110 ± 10 nM; in experiment [6], 160 ± 10 nM.

For `CN(CCCCCN1CCCC1)C1=Nc2ccccc2C(CC(=O)NCc2ccccc2)N1c1ccc(-c2ccccc2)cc1` (stereo not drawn) [KYS05080], the GI50 in experiment [1] is 2490 ± 530 nM; in experiment [2], 610 ± 120 nM; in experiment [3] it was 2760 ± 760 nM; in experiment [4], 690 ± 150 nM; in experiment [6], 870 ± 180 nM. Further, the concentration for half-maximal inhibition (IC50) in experiment [5] was 260 ± 10 nM.

Regarding `CN(C)CCCCCN(C)C1=Nc2ccccc2C(CC(=O)NCc2ccccc2)N1c1ccc(-c2ccccc2)cc1` (stereo not drawn) [KYS05090, 4-(N-Benzylacetamino)-3-(4-Biphenylyl)-2-[N-(5-N′,N′-Dimethylaminopentyl)-N-Methylamino]-3,4-Dihydroquinazoline], the GI50 in experiment [1] came to 190 ± 20 nM; in experiment [2], 40 ± 10 nM; in experiment [3], 660 ± 130 nM; in experiment [4], 480 ± 130 nM; in experiment [6] it was 170 ± 20 nM. In addition, in experiment [2] (human colon cancer cell line, compared to KYS05042), the “Times stronger activity against human colon cancer cell line compared to KYS05042” value is “about 40 times”. The “Times stronger activity against human colon cancer cell line compared to doxorubicin” value in experiment [2] (human colon cancer cell line, compared to doxorubicin) is “about 5 times”. The “Times stronger growth inhibition compared to KYS05042” value in the experiment with five cancer cell lines (compared to KYS05042) is “about 10 times”. The “Growth inhibition compared to doxorubicin” value in the experiment on five cancer cell lines (compared to doxorubicin) was “nearly equipotent growth inhibition”. Also, the IC50 in experiment [5] was 41 ± 1 nM.
